According to paper PMC5847527, “Identification of a novel 2-oxindole fluorinated derivative as in vivo antitumor agent for prostate cancer acting via AMPK activation” (Scientific Reports, 2018):

Key:
[1] = tested on: PTN2, RWPE-1, PC3, DU145 and LNCaP prostate cells; assay: Cell viability by MTT assay, statements for the five cell lines together; assay type: cell-based, human
Procedure: We then study the effect of the compounds on the proliferative capacity of PC-3, DU145 and LNCaP prostate cells. We also used the prostate cell lines PTN2 and RWPE-1 which are derived from a histologically normal adult and therefore are considered as normal prostate cells, for comparison. All the compounds were tested at concentrations ranging from 1 to 100 μM.
(A) Normal (PTN2 and RWPE-1) and cancer (PC3,DU145 and LNCaP) prostate cells were treated with different doses of the compounds for 24 hours and cell viability was monitored by MTT assay. […] Values were normalized with the control and represent the mean ± SD of at least three independent experiments. *p < 0.05 and **p < 0.01 compared to control by the Student’s - test.
Human prostate cancer epithelial PC-3, DU145 and LNCaP and human prostate normal RWPE-1 cells were purchased from American Type Culture Collection (ATCC CRL-1435 CRL-1740 and CRL 11609 respectively) (Rockville, MD, USA). The human prostate normal PNT2 cell line was purchased to ECACC (European Collection of Cell cultures, Salisbury, SP4 0JG, UK). Cells were routinely grown in RPMI 1640 medium supplemented with 100 IU/ml penicillin G sodium, 100 µg/ml streptomycin sulfate, 0.25 µg/ml amphotericin B (Invitrogen, Paisley, UK) and 10% fetal calf serum. Cells were used at passages between 10–20. […]
Cell viability was determined by 3-(4,5-dimethylthiazol-2-yl)-2,5-diphenyltetrazolium bromide (MTT) (Sigma-Aldrich) method. […] The optical density in each well was evaluated by measurement of absorbance at 490 and 650 nm using a microplate reader (ELX 800 Bio-Tek Intruments, INC). IC50 values were calculated using GraphPad Prism vs 6.0 (GraphPad Software, Inc, La Jolla, CA, USA). Cell viability was also determined by counting viable and dead cells by Trypan blue staining. Trypan blue positive and negative cells were counted using a Countess^TM automated cell counter (Invitrogen, Carlsbad, CA, USA). Results were expressed in relation to total number of cells counted.

[2] = molecular target: T1, human recombinant AMPK isoform α1β1γ1 (Homo sapiens, UniProt P54619+Q13131+Q9Y478); assay: In vitro AMPK enzymatic assay (AMARA peptide, Delfia), α1β1γ1; assay type: biochemical; conditions: 30 μM, p < 0.001
T1 construct: purchased Invitrogen
T1 sequence (Q13131 whole entry, canonical isoform): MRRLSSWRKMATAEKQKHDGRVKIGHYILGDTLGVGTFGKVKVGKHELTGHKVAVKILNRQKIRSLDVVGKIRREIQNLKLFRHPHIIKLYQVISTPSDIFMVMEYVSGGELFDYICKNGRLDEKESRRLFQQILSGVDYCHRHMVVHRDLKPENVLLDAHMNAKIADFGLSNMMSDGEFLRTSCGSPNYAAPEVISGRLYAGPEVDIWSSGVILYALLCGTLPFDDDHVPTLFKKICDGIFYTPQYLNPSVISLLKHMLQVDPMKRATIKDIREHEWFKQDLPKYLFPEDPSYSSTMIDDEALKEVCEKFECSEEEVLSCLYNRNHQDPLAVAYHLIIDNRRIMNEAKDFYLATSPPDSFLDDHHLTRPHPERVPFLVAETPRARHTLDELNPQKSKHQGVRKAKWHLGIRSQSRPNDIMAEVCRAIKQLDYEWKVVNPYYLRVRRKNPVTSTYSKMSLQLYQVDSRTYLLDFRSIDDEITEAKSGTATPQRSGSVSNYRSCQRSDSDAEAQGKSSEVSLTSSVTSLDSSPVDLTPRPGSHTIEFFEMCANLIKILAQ
T1 sequence (Q9Y478 whole entry, canonical isoform): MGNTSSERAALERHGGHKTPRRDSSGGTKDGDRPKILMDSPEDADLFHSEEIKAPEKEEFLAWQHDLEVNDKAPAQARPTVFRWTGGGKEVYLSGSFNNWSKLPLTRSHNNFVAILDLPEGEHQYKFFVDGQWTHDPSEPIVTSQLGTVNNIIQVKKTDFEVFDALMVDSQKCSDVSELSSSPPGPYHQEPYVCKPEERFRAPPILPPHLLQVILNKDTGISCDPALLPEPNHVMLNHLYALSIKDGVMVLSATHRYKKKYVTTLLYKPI
T1 sequence (P54619 whole entry, canonical isoform): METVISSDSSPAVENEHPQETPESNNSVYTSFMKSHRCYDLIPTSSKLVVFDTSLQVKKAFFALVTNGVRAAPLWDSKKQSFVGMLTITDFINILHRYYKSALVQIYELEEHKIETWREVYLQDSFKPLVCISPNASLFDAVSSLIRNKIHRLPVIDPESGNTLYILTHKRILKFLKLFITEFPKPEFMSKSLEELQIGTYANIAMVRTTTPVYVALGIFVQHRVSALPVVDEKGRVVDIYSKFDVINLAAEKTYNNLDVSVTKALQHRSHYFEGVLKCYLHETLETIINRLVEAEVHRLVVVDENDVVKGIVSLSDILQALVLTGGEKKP
Procedure: This assay evaluated the ability of the compound to activate AMPK and in turn phosphorylate the synthetic substrate peptide [sequence].
Data are the mean ± S.D. of four experiments. **p < 0.01 and ***p < 0.001 compared by the Student’s t-test.
The effect of compounds in the in vitro human recombinant AMPK activity assay was measured by monitoring phosphorylation of the “AMARA” peptide using Delfia technology. […] Final concentration of DMSO was 1%. Reactions were initiated by the addition of AMPK (0.1U). Following mixing, the plates were incubated for 30 min at room temperature. Enzyme activity was assayed by using an anti-phospho-serine antibody to measure the quantity of phosphate incorporated into the AMARAA peptide.

AMPK = AMPK and ACC phosphorylation by Western blot in DU145 cells; assay type: cell-based, human; conditions: 25 µM, 1 hour
Procedure: Figure 2 Effect of 2-oxindole fluorinated derivatives on AMPK activity in prostate cancer cells. (A) PC-3, DU145 and LNCaP cells were treated with 25 µM of the selected 2-oxindole fluorinated derivatives for 1 hour. Levels of the phosphorylated AMPK (pAMPK), phosphorylated ACC (pACC) and their total forms were determined by Western blot. Upper panel, a representative Western blot of three different experiments. β-tubulin (β-Tub) serves as a loading control. […] Lower panels, densitometric analyses of bands represented as the mean of the ratio pAMPK/AMPK or pACC/ACC ± SD of three different experiments. *p < 0.05 compared with the controls by one-way ANOVA followed by Fisher’s LSD test; ^#p < 0.05 compared with 2-oxindole fluorinated derivates or with the AMPK activators AMP or A769662 by one-way ANOVA followed by Tukey test.
Similar results were obtained although AMPK stimulation by compound 8c was not so strong (Fig. 2A). […]
Cells were lysed in Lysis buffer (50 mM Tris pH 7.4, 0.8 M NaCl, 5 mM MgCl2, 0.1% Triton X-100) containing Protease Inhibitor and Phosphatase inhibitor Cocktails (Roche, Basel, Switzerland). Protein concentrations were measured by BioRad™ protein assay kit (Richmond, CA, USA). […] Films were analyzed by densitometry. […]

[3] = tested on: PC-3, DU145 and LNCaP cells; assay: Cell viability by cell counting (Trypan blue); assay type: cell-based; conditions: 25 µM
Procedure: Figure 3 Comparison of the effect of 2-oxindole fluorinated derivatives on the proliferation of human prostate cancer cells. (A) Normal (PTN2 and RWPE-1) and cancer (PC3,DU145 and LNCaP) prostate cells were treated with different doses of the compounds for 24 hours and cell viability was monitored by MTT assay. […] (C) PC-3, DU145 and LNCaP cells were treated with 25 µM of compound 8c for different times. Values were normalized with the control and represent the mean ± SD of at least three independent experiments. *p < 0.05 and **p < 0.01 compared to control by the Student’s - test.
To confirm the antiproliferative effect of compound 8c, cell viability was evaluated by cell counting at different times in PC-3, DU145 and LNCaP cells.
Cell viability was determined by 3-(4,5-dimethylthiazol-2-yl)-2,5-diphenyltetrazolium bromide (MTT) (Sigma-Aldrich) method. […] The optical density in each well was evaluated by measurement of absorbance at 490 and 650 nm using a microplate reader (ELX 800 Bio-Tek Intruments, INC). IC50 values were calculated using GraphPad Prism vs 6.0 (GraphPad Software, Inc, La Jolla, CA, USA). Cell viability was also determined by counting viable and dead cells by Trypan blue staining. Trypan blue positive and negative cells were counted using a Countess^TM automated cell counter (Invitrogen, Carlsbad, CA, USA). […]

SMILES: O=C1Nc2ccccc2C1(F)Cc1ccc(-c2ccccc2)o1 (centres unmarked) [Compound 8c, 3-fluoro-3-((5-phenylfuran-2-yl)methyl)indolin-2-one]
- inhibition of cell viability at 100 µM ([1]; 100 µM): almost totally inhibited cell viability
- inhibition of cell proliferation ([1]; 1–100 µM, dose-dependent, 24 hours): effectively inhibited cell proliferation
- increase of AMPK α1β1γ1 activity [2]: 75%
- AMPK phosphorylation (pAMPK/AMPK) (AMPK): stimulate AMPK in DU145 cells
- cytotoxic effect by cell counting at different times [3]: time-dependent strong cytotoxic effect
